Laboratory results reported in paper PMC11861427, “Functional Characterization of a Female-Biased Chemoreceptor of the Codling Moth (Cydia pomonella) Responding to Aldehydes and Other Volatile Compounds” (Journal of Chemical Ecology, 2025).

Assays:
CpomOR22 [1] = system: T1, CpomOR22; assay: SSR dose response and GC-SSR in transgenic Drosophila ab3A neurons; set-up: species or system Cydia pomonella
T1 construct: gene OR22

CpomOR22 [2] = system: T2, CpomOR22; assay: two-electrode voltage clamp, Xenopus oocytes, dose response; also GC-SSR; type: cell-based, Cydia pomonella
T2 construct: gene OR22; with CpomOrco

CpomOR22 [3] = system: T2, CpomOR22; assay: two-electrode voltage clamp, Xenopus oocytes, dose response; type: cell-based, Cydia pomonella
Description: two-electrode voltage clamp, Xenopus oocytes, dose response on CpomOR22 | CpomOR22 dose responsiveness to undecanal and γ-undecalactone across five orders of magnitude

Compound `CCCC/C=C\CCCCC=O` [(Z)−6-undecenal] has an EC50 (CpomOR22 [1]) of 2.903 ± 1.709 µg.
For `CCCCCCCCCCC=O` [undecanal], the EC50 (CpomOR22 [2]) was 16.7 µM.
`CCCCCCCC1CCC(=O)O1` (stereo not drawn) [γ-undecalactone] gave an EC50 (CpomOR22 [3]) of 8.4 µM.
